The source of these data is publication PMC6452631 (Journal of medicinal chemistry, 2017).

Broadly, the pEC50 is the negative decadic logarithm of the EC50, by convention in mol/L. One may read the kinact as the rate constant of inactivation at saturating inhibitor. As a reminder, the Hill slope is a measure of the steepness of the concentration-response curve. One may read the kinact/KI as the second-order rate constant of inactivation.

pEC50: −log10 of the molar value. Peptide text beside a SMILES is read from it. * marks the point of attachment. Cbz = O=C(OCc1ccccc1)*; Acryloyl = C=CC(=O)*

One test concerns the target gplTG2. The following applies: cited from earlier work; for K1 values: gplTG2, in words.
For test [1], the system named is epidermal cancer stem (ECS) cells. The conditions noted are these: cited from earlier work.
Test [2] relates to epidermal cancer stem (ECS) cells (SCC-13). Kind of test: Cell invasion assay. In kind it is cell-based, human.
Test [3] concerns mouse xenograft tumors initiated by injection of cancer stem cells. The following applies: intraperitoneal injection, 20 mg/kg; cited from earlier work.
For test [4], the target named is T1, hTG2 (Homo sapiens, UniProt P21980).
T1 sequence (P21980 1-687): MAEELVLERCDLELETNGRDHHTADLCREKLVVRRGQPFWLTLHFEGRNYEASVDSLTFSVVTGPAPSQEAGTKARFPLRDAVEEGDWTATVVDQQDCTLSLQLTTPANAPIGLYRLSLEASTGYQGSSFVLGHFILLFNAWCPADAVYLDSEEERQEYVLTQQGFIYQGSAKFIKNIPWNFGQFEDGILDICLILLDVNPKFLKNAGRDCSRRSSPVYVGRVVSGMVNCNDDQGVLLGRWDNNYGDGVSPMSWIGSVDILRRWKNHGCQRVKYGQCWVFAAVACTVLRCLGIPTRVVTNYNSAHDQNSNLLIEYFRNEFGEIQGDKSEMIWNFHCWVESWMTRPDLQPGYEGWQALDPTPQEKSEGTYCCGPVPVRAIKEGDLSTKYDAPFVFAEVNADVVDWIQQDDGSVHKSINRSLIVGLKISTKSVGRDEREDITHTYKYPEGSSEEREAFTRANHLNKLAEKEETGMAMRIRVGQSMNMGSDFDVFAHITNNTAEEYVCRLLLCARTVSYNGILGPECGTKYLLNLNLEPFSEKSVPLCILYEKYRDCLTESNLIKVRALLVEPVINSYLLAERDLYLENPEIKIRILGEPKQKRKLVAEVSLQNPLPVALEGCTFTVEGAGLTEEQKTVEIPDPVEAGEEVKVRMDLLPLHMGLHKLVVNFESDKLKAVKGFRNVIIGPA
Kind of test: Colorimetric transamidase activity assay.

Test [5] deals with T1, hTG2. Kind of test: In vitro GTP binding assay. The conditions noted are these: inhibitor at 2KI, 30 min, 25 °C; 3 μM BODIPY GTP-γ-S.
Test [6] deals with T1, hTG2. Briefly: Inhibition irreversibility. In kind it is biochemical. The following applies: compared to uninhibited hTG2.
For test [7], the target named is T1, hTG2. The conditions noted are these: pH 6.5.

Take `C=CC(=O)NCCCC[C@H](NC(=O)OCc1ccccc1)C(=O)O` [Compound 1, (S)-6-Acrylamido-2-(((benzyloxy)carbonyl)amino)hexanoic Acid]: the K1 values result at gplTG2 is reported as “high nanomolar range”.
Consider `C=CC(=O)NCCCC[C@H](NC(=O)OCc1ccccc1)C(=O)NCC(=O)O` [Compound 2, (S)-2-(6-Acrylamido-2-(((benzyloxy)carbonyl)amino)-hexanamido)acetic Acid] (Cbz-Lys(Acryloyl)-Gly-OH), for which, at gplTG2, the K1 values entry was “high nanomolar range”. Also, at gplTG2 (gplTG2), the “efficiency constants (kinact/KI)” value is 10^6 M^−1 min^−1.
Take `C=CC(=O)NCCCC[C@H](NC(=O)OCc1ccccc1)C(=O)NCCOCCOCCNS(=O)(=O)c1cccc2c(N(C)C)cccc12` [Compound 3, (S)-Benzyl-(1-((5-(dimethylamino)naphthalene)-1-sulfonamido)-10,17-dioxo-3,6-dioxa-9,16-diazanonadec-18-en-11-yl)carbamate]: the “ECS cell proliferation and survival” value in test [1] (20 μM) was “reduced ECS cell proliferation and survival”. Moreover, the “effect in TG2 knockout ECS cells” value in test [1] (TG2 knockout ECS cells) was “no effect”. Further, in test [2] (Homo sapiens, SCC-13, 18 h, read-out: EC50, inhibition of ECS cell invasion), the negative-log EC50 (pEC50) is less than 4.70. In addition, the “growth of mouse xenograft tumors” value in test [3] is reported as “reduced the growth”. Further, in the test on gplTG2 (gplTG2), the inactivation rate constant (kinact) was 0.483 min⁻¹. Besides, the “increase in overall efficiency (kinact/KI), hTG2 versus gplTG2” value at hTG2 [4] (hTG2 compared to gplTG2) is reported as 5 fold.
As for `C=CC(=O)NCCCC[C@H](NC(=O)OCc1ccccc1)C(N)=O` [Compound 4, (S)-Benzyl-(6-acrylamido-1-amino-1-oxohexan-2-yl)carbamate], on hTG2 [5], the “GTP binding ability of hTG2 after incubation with inhibitor” value (“GTP binding ability … with inhibitor” below) was “able to abolish GTP binding”.
As to `C=CC(=O)NCCCC[C@H](NC(=O)OCc1ccccc1)C(=O)N1CCN(S(=O)(=O)c2cccc3c(N(C)C)cccc23)CC1` [Compound 13, (S)-Benzyl (6-Acrylamido-1-(4-((5-(dimethylamino)naphthalen-1-yl)sulfonyl)piperazin-1-yl)-1-oxohexan-2-yl)carbamate], the “GTP binding ability … with inhibitor” value at hTG2 [5] was “abolishing GTP binding nearly completely”. The Hill slope in test [2] (three-parameter sigmoidal fit of invasion data, maximum fixed at 100) is given as 1.16 ± 0.13. At hTG2 [4], the second-order inactivation constant (kinact/KI) was greater than 1670 M⁻¹ s⁻¹. For the same molecule, the “reduction in the inhibition binding constant compared to 3” value on hTG2 [4] (hTG2) is on record as “greater than 2 fold”. Moreover, the “recovered hTG2 activity after filtration (10 kDa cutoff) and dilution” value on hTG2 [6] is reported as “no recovered activity”.
On to `C=CC(=O)NCCCC[C@H](NC(=O)OCc1ccccc1)C(=O)N1CCN(S(=O)(=O)c2cccc3ccccc23)CC1` [Compound 30, (S)-Benzyl 6-Acrylamido-1-(4-(naphthalen-1-ylsulfonyl)piperazin-1-yl)-1-oxohexan-2-yl-carbamate], for which the “kinact less than that of 13” value on hTG2 [4] (hTG2) is reported as “more than 3 fold”.
For the molecule `C=CC(=O)NCCCC[C@H](NC(=O)OCc1ccccc1)C(=O)N1CCN(C(=O)c2cccc3ccccc23)CC1` [Compound 49, (S)-Benzyl (1-(4-(1-Naphthoyl)piperazin-1-yl)-6-acrylamido-1-ox-ohexan-2-yl)carbamate], at hTG2 [5], the “GTP binding ability … with inhibitor” value was “abolishing GTP binding nearly completely”. In addition, the inactivation efficiency (kinact/KI) at hTG2 [4] is greater than 1670 M⁻¹ s⁻¹.
For the molecule `C=CC(=O)NCCCC[C@H](NC(=O)OCc1ccccc1)C(=O)N1CCOCC1` [Compound 59], at hTG2 [7], the kinact is 0.0245 s⁻¹.
`NC(=O)CI` [iodoacetamide, reference compound]: at hTG2 [5], the “GTP binding ability … with inhibitor” value is “did not perturb its GTP-binding ability”. Also, on hTG2 [4] (in words), the “inhibition of hTG2 acyltransferase activity” value is “irreversible inhibition”.
